Measurements published in patent US9023789B2, “Amylin analogs and pharmaceutical compositions thereof” (Novo Nordisk A/S, priority 2012, dated 2015).

Key:
[1] = target: T1, human amylin 3(a) receptor (human calcitonin receptor + RAMP-3) in BHK570 cells (Homo sapiens, UniProt O60896+P30988); test: ASSAY (II)a functional assay, human amylin receptor (CRE luciferase); type: cell-based
T1 construct: expressed in transfected cells
In short: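 Readout is luminescence from a cAMP-responsive CRE-luc reporter, developed with LucLite for 30 min at room temperature. Cells were treated for 3 h at 37 °C in 10% FBS/DMEM buffered with 10 mM Hepes (pH 7.4).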

[2] = target: T2, human amylin receptor (membranes from Amylin 3(a)/CRE-luc cells) (Homo sapiens, UniProt O60896+P30988); test: ASSAY (V) binding to the human amylin receptor (SPA, 125I-rat amylin);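 further: competition binding of cell membranes (35 ng/µL) mixed with SPA beads in 384-well plates at 40 µL total volume, read by scintillation counting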
T2 construct: expressed in transfected cells
T2 sequence (P30988 25-474): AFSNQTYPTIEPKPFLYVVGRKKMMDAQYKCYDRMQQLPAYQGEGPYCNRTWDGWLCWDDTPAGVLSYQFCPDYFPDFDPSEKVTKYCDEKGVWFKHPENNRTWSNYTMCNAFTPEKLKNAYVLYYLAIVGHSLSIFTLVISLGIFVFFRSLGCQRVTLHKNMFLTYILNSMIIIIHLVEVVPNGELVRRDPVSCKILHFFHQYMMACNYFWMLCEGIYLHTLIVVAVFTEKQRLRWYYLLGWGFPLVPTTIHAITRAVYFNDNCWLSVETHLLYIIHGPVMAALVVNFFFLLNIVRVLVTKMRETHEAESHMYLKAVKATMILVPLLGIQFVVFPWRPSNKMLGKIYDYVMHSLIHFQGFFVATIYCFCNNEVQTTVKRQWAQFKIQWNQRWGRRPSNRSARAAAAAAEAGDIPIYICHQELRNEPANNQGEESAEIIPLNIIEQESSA
T2 sequence (O60896 24-148 partner): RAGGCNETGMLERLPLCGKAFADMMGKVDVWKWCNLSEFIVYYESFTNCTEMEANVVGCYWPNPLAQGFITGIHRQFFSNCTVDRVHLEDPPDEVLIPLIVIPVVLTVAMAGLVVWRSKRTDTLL

CC[C@H](C)[C@H](NC(=O)[C@H](C)NC(=O)CNC(=O)[C@H](Cc1ccccc1)NC(=O)[C@H](CC(N)=O)NC(=O)[C@@H]1CCCN1C(=O)[C@H](CO)NC(=O)[C@H](CO)NC(=O)[C@H](Cc1c[nH]cn1)NC(=O)[C@H](CCCNC(=N)N)NC(=O)[C@H](CC(C)C)NC(=O)[C@H](Cc1ccccc1)NC(=O)[C@H](CC(N)=O)NC(=O)[C@H](C)NC(=O)[C@H](CC(C)C)NC(=O)[C@H](CCCNC(=N)N)NC(=O)[C@H](CCC(N)=O)NC(=O)[C@@H](NC(=O)[C@H](C)NC(=O)[C@@H]1CSSC[C@H](NC(=O)[C@@H](N)CCCCNC(=O)COCCOCCNC(=O)CC[C@H](NC(=O)CCCCCCCCCCCCCCCCCCC(=O)O)C(=O)O)C(=O)N[C@@H](CC(N)=O)C(=O)N[C@@H]([C@@H](C)O)C(=O)N[C@@H](C)C(=O)N[C@@H]([C@@H](C)O)C(=O)N1)[C@@H](C)O)C(=O)N1CCC[C@H]1C(=O)N[C@@H](CO)C(=O)N[C@@H](CO)C(=O)N[C@H](C(=O)N[C@@H](CC(N)=O)C(=O)N[C@H](C(=O)NCC(=O)N[C@@H](CO)C(=O)N[C@@H](CC(N)=O)C(=O)N[C@H](C(=O)N[C@@H](Cc1ccc(O)cc1)C(N)=O)[C@@H](C)O)C(C)C)[C@@H](C)O [Example 41]
Ratio hCT/hAmylin funct. ([1]; hCTR funct. EC50 divided by hAmylin-R funct. EC50): 16.7
Ratio hCT/hAmylin funct. ([1]; hCTR funct. EC50 over hAmylin-R funct. EC50): 16.7
EC50 ([1]; human amylin receptor functional potency, assay (II), read-out: hAmylin-R funct. EC50): 260 pM
Ratio hCT/hAmylin funct. ([1]; human functional selectivity: hCTR funct. EC50 / hAmylin-R funct. EC50): 16.7
IC50 ([2]; Table 4, read-out: hAmylin-R bind IC50): 427 pM
Ratio hCT/hAmylin binding ([2]; Table 5, selectivity, hCTR bind IC50 / hAmylin-R bind IC50): 49.9
Ratio hCT/hAmylin binding ([2]; Table 5a, selectivity, hCTR bind IC50 / hAmylin-R bind IC50): 49.9
Ratio hCT/hAmylin binding ([2]; Table 5b, selectivity, hCTR bind IC50 / hAmylin-R bind IC50): 49.9
Ratio hCT/hAmylin binding ([2]; Table 5c, selectivity, hCTR bind IC50 / hAmylin-R bind IC50): 49.9
Ratio hCT/hAmylin binding ([2]; Table 7, human binding selectivity, included for comparison): 49.9
Ratio hCT/hAmylin binding ([2]; Table 7a (preferred compounds), human binding selectivity, included for comparison): 49.9
Ratio hCT/hAmylin binding ([2]; ratio of human calcitonin receptor binding IC50 to human amylin receptor binding IC50): 49.9
